In PMC10117764, “The roles of serine hydrolases and serum albumin in alisol B 23-acetate hydrolysis in humans” (Frontiers in Pharmacology, 2023):

Columns and labels:
FXR = target: T1, FXR (Homo sapiens, UniProt Q96RI1); test: FXR transcriptional activation, Dual-Luciferase Reporter Assay in HEK293T cells; format: cell-based
T1 construct: expressed in transfected cells; host or cells: HEK293T
T1 sequence (Q96RI1 1-486): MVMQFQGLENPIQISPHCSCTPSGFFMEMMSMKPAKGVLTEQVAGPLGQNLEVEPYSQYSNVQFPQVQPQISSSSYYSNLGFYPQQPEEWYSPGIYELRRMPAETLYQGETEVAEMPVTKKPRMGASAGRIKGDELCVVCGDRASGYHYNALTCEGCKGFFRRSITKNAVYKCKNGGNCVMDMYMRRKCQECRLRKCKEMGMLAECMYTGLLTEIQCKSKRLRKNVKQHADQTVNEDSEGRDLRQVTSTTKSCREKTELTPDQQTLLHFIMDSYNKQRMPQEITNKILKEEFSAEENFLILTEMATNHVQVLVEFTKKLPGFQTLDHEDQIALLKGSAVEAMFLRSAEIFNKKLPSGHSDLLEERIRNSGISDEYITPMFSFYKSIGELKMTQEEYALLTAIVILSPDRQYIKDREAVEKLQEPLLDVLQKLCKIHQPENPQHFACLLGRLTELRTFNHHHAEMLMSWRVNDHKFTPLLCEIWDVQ
T1 sequence (P19793 1-462 partner): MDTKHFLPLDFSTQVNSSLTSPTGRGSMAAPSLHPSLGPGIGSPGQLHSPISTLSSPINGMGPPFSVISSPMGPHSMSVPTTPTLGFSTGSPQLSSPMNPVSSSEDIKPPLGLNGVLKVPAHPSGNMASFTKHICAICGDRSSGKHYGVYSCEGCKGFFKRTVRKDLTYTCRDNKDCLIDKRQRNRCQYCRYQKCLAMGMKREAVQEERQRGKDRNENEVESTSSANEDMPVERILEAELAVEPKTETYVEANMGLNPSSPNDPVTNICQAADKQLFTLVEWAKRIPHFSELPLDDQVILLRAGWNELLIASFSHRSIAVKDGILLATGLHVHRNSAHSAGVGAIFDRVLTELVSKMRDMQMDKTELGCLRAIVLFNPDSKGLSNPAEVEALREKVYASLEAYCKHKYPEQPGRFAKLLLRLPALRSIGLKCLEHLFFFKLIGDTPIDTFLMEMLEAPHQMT
Method: The phFXR, phRXR (retinoid X receptor) and FXR-dependent reporter (EcRE-LUC) were expressed and cotransfected with the Gal4 reporter vector MH100 × 4-TK-Luc, then 1 μg of the relevant plasmid was combined with 1 μg of reporter plasmids and 0.1 μg of pREP7 (Renilla Luciferase) reporter, which was used to normalize transfection efficiencies. HEK293T cells were dispensed into 96 well plates using a volume of 100 μL and 1 × 10^5 cells per well.

[1] = design: method as in Liu et al. (2022); details: oral administration of Qingfei Paidu Decoction, ref Liu et al. (2022); cited from earlier work
AB23A hydrolysis in HIMs = test: Chemical inhibition assay of AB23A hydrolysis in HIMs; format: biochemical, human; details: BNPP 50 μM, LPA 100 μM
AB23A hydrolysis in HLMs = test: Chemical inhibition assay of AB23A hydrolysis in HLMs; format: biochemical, human; details: HLMs 0.1 mg/mL, AB23A 20 μM, 1 h; BNPP 50 μM, LPA 100 μM, GA 100 μM, boceprevir 20 μM, EDTA 20 μM
Method: (§1) The inhibitory effects of a series of selective inhibitors of human hydrolases against AB23A hydrolysis were assessed. The selective inhibitors of human hydrolases including BNPP (50 μM, a specific inactivator of CES), boceprevir (20 μM, a potent inhibitor for CTSA), LPA (100 μM, a selective inhibitor for CES2A), GA (100 μM, a cholinesterase inhibitor), EDTA (20 μM, a selective PONs inhibitor). The incubation system included PBS, inhibitors, HLMs (0.1 mg/mL)/human plasma (25% dilution), and AB23A (20 μM). After reacting for 1 h, ice-cold acetonitrile was used to terminate the reaction. The supernatants by centrifuging were used to quantify the formation rates of AB by LC-UV analysis.

[2] = tested on: AB23A hydrolysis in human plasma; test: Chemical inhibition assay of AB23A hydrolysis in human plasma; format: biochemical; details: human plasma 25% dilution, AB23A 20 μM, 1 h; GA 100 μM, boceprevir 20 μM, EDTA 20 μM
Method: as §1

[3] = tested on: T2, CC(=O)O[C@H](C[C@@H](C)C1=C2C[C@H](O)C3[C@@]4(C)CCC(=O)C(C)(C)C4CC[C@]3(C)[C@@]2(C)CC1)[C@H]1OC1(C)C; test: Kinetic analysis of AB23A hydrolysis in hSA; format: in vitro ADME, human; details: other: hSA
T2 construct: purchased Sigma-Aldrich Lot#SLCC9268
Method: (§2) The enzymatic kinetics of AB23A hydrolysis in different tissue preparations (HLMs, HIMs, human plasma) and human recombinant enzymes (hCES1A, hCES2A, hSA, hBchE) were analyzed. The incubation system (200 μL) consisted of PBS, each tested enzyme, and AB23A (ranging from 0 to 1,000 μM). After incubating for 1 h, the supernatants were then used for LC-UV analysis. The kinetic parameters of AB23A hydrolysis were fitted by the following Michaelis−Menten Eq. 1 ([Zhang et al., 2022]). V=(Vmax×[S])⁄(Km+[S]) (1) Here, K m is the Michaelis constant of AB23A hydrolysis, V max is the maximum velocity of AB23A hydrolysis, V max /K m is used to calculate the intrinsic clearance (CL int ).

[4] = substrate: CC(=O)O[C@H](C[C@@H](C)C1=C2C[C@H](O)C3[C@@]4(C)CCC(=O)C(C)(C)C4CC[C@]3(C)[C@@]2(C)CC1)[C@H]1OC1(C)C; test: Kinetic analysis of AB23A hydrolysis in hCES1A; format: in vitro ADME, human; details: other: hCES1A
Method: as §2

[5] = substrate: CC(=O)O[C@H](C[C@@H](C)C1=C2C[C@H](O)C3[C@@]4(C)CCC(=O)C(C)(C)C4CC[C@]3(C)[C@@]2(C)CC1)[C@H]1OC1(C)C; test: Kinetic analysis of AB23A hydrolysis in hCES2A; format: in vitro ADME, human; details: other: hCES2A
Method: as §2

Molecule: C[C@H](C[C@H](O)[C@H]1OC1(C)C)C1=C2C[C@H](O)[C@H]3[C@@]4(C)CCC(=O)C(C)(C)[C@@H]4CC[C@]3(C)[C@@]2(C)CC1 [AB, alisol B]
- FXR agonist effect (transcriptional activation) (FXR; HEK293T cells, 5, 10, 20 μM, 48 h, GW4064 (10 μM) set at 100%): dose-dependently agonize FXR
- FXR activation compared with AB23A (FXR; HEK293T cells, low doses (5 and 10 μM)): slightly more potent than AB23A
- Detection in mice plasma and liver [1]: readily detected

Molecule: O=[N+]([O-])c1ccc(OP(=O)(O)Oc2ccc([N+](=O)[O-])cc2)cc1 [BNPP, bis(p-nitrophenyl) phosphate]
- Effect on formation of AB (AB23A hydrolysis) in HIMs (AB23A hydrolysis in HIMs): near-completely inhibited
- Effect on AB23A hydrolysis in HLMs (AB23A hydrolysis in HLMs): completely blocked

Molecule: O=C(O)CN(CCN(CC(=O)O)CC(=O)O)CC(=O)O [EDTA, Ethylenediaminetetraacetic acid]
- Effect on AB23A hydrolysis in HLMs (AB23A hydrolysis in HLMs): negligible effects
- Effect on formation of AB (AB23A hydrolysis) in human plasma [2]: negligible effects

Molecule: COc1ccc2c3c1O[C@H]1C[C@@H](O)C=C[C@@]31CCN(C)C2 [GA, galanthamine]
- Effect on AB23A hydrolysis in HLMs (AB23A hydrolysis in HLMs): slightly blocked
- Effect on formation of AB (AB23A hydrolysis) in human plasma [2]: significantly inhibit

Molecule: CN(C)C(=O)C(CCN1CCC(O)(c2ccc(Cl)cc2)CC1)(c1ccccc1)c1ccccc1 [LPA, Loperamide]
- Effect on formation of AB (AB23A hydrolysis) in HIMs (AB23A hydrolysis in HIMs): partially inhibit
- Effect on AB23A hydrolysis in HLMs (AB23A hydrolysis in HLMs): slightly blocked

Molecule: CC(C)(C)NC(=O)N[C@H](C(=O)N1C[C@H]2[C@@H]([C@H]1C(=O)NC(CC1CCC1)C(=O)C(N)=O)C2(C)C)C(C)(C)C (stereo partly shown) [boceprevir, Boceprevir]
- Effect on AB23A hydrolysis in HLMs (AB23A hydrolysis in HLMs): negligible effects
- Effect on formation of AB (AB23A hydrolysis) in human plasma [2]: negligible effects

Molecule: hSA (Homo sapiens)
- Vmax [3]: 0.0004 µmol/min/mg
- Vmax/Km [3]: 1.53 µL/min/mg

B1: hCES1A (Homo sapiens) (protein)
chain: GHPSSPPVVDTVHGKVLGKFVSLEGFAQPVAIFLGIPFAKPPLGPLRFTPPQPAEPWSFVKNATSYPPMCTQDPKAGQLLSELFTNRKENIPLKLSEDCLYLNIYTPADLTKKNRLPVMVWIHGGGLMVGAASTYDGLALAAHENVVVVTIQYRLGIWGFFSTGDEHSRGNWGHLDQVAALRWVQDNIASFGGNPGSVTIFGESAGGESVSVLVLSPLAKNLFHRAISESGVALTSVLVKKGDVKPLAEQIAITAGCKTTTSAVMVHCLRQKTEEELLETTLKMKFLSLDLQGDPRESQPLLGTVIDGMLLLKTPEELQAERNFHTVPYMVGINKQEFGWLIPMQLMSYPLSEGQLDQKTAMSLLWKSYPLVCIAKELIPEATEKYLGGTDDTVKKKDLFLDLIADVMFGVPSVIVARNHRDAGAPTYMYEFQYRPSFSSDMKPKTVIGDHGDELFSVFGAPFLKEGASEEEIRLSKMVMKFWANFARNGNPNGEGLPHWPEYNQKEGYLQIGANTQAAQKLKDKEVAFWTNLFAKKAVEKPPQTE
notes: 10xHis; made in house; host or cells: HEK293-F cells, pTT5 vector, purified from conditioned medium
- Vmax [4]: 0.0235 µmol/min/mg
- Vmax/Km [4]: 123 µL/min/mg

B2: hCES2A (Homo sapiens) (protein)
chain: QDSASPIRTTHTGQVLGSLVHVKGANAGVQTFLGIPFAKPPLGPLRFAPPEPPESWSGVRDGTTHPAMCLQDLTAVESEFLSQFNMTFPSDSMSEDCLYLSIYTPAHSHEGSNLPVMVWIHGGALVFGMASLYDGSMLAALENVVVVIIQYRLGVLGFFSTGDKHATGNWGYLDQVAALRWVQQNIAHFGGNPDRVTIFGESAGGTSVSSLVVSPISQGLFHGAIMESGVALLPGLIASSADVISTVVANLSACDQVDSEALVGCLRGKSKEEILAINKPFKMIPGVVDGVFLPRHPQELLASADFQPVPSIVGVNNNEFGWLIPKVMRIYDTQKEMDREASQAALQKMLTLLMLPPTFGDLLREEYIGDNGDPQTLQAQFQEMMADSMFVIPALQVAHFQCSRAPVYFYEFQHQPSWLKNIRPPHMKADHGDELPFVFRSFFGGNYIKFTEEEEQLSRKMMKYWANFARNGNPNGEGLPHWPLFDQEEQYLQLNLQPAVGRALKAHRLQFWKKALPQKIQELEEPEERHTEL
notes: as for B1
- Vmax [5]: 0.0125 µmol/min/mg
- Vmax/Km [5]: 212 µL/min/mg
